Measured values taken from PubChem BioAssay (NCI).
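Method: 48-hour compound exposure of cells in 96-well plates, five concentrations, linear interpolation of endpoints. TGI: concentration producing complete growth inhibition.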

Tests used:
Assay in all cases: NCI tumour cell line growth inhibition, 48 h
DMS 114 small cell lung = tested on: DMS 114 small cell lung
KM12 colon = tested on: KM12 colon
OVCAR-8 ovarian = tested on: OVCAR-8 ovarian
IGROV1 ovarian = tested on: IGROV1 ovarian
UACC-257 melanoma = tested on: UACC-257 melanoma
SNB-78 CNS = tested on: SNB-78 CNS
SN12C renal = tested on: SN12C renal
MCF7 breast = tested on: MCF7 breast
SN12K1 renal = tested on: SN12K1 renal
OVCAR-5 ovarian = tested on: OVCAR-5 ovarian
SK-MEL-28 melanoma = tested on: SK-MEL-28 melanoma
DLD-1 colon = tested on: DLD-1 colon
RPMI-8226 leukemia = tested on: RPMI-8226 leukemia
CCRF-CEM leukemia = tested on: CCRF-CEM leukemia
COLO 205 colon = tested on: COLO 205 colon
A549 NSCLC = tested on: A549 NSCLC
EKVX NSCLC = tested on: EKVX NSCLC
NCI-H460 lung = tested on: NCI-H460 lung
SF-295 CNS = tested on: SF-295 CNS
MALME-3M melanoma = tested on: MALME-3M melanoma
OVCAR-3 ovarian = tested on: OVCAR-3 ovarian
SW-620 colon = tested on: SW-620 colon
HL-60(TB) leukemia = tested on: HL-60(TB) leukemia
M19-MEL melanoma = tested on: M19-MEL melanoma
UACC-62 melanoma = tested on: UACC-62 melanoma
NCI/ADR-RES ovarian = tested on: NCI/ADR-RES ovarian
HCT-116 colon = tested on: HCT-116 colon
HOP-62 NSCLC = tested on: HOP-62 NSCLC
SK-MEL-2 melanoma = tested on: SK-MEL-2 melanoma
UO-31 renal = tested on: UO-31 renal
HCC-2998 colon = tested on: HCC-2998 colon
CAKI-1 renal = tested on: CAKI-1 renal
RXF 393 renal = tested on: RXF 393 renal
MOLT-4 leukemia = tested on: MOLT-4 leukemia
HCT-15 colon = tested on: HCT-15 colon
KM20L2 colon = tested on: KM20L2 colon
A498 renal = tested on: A498 renal
HOP-18 NSCLC = tested on: HOP-18 NSCLC
SK-MEL-5 melanoma = tested on: SK-MEL-5 melanoma
OVCAR-4 ovarian = tested on: OVCAR-4 ovarian
P388 leukemia = tested on: P388 leukemia
SNB-75 CNS = tested on: SNB-75 CNS
SNB-19 CNS = tested on: SNB-19 CNS
NCI-H226 lung = tested on: NCI-H226 lung
XF 498 CNS = tested on: XF 498 CNS
P388/ADR leukemia = tested on: P388/ADR leukemia
HT29 colon = tested on: HT29 colon
DMS 273 small cell lung = tested on: DMS 273 small cell lung
NCI-H522 lung = tested on: NCI-H522 lung
SF-268 CNS = tested on: SF-268 CNS
HOP-92 NSCLC = tested on: HOP-92 NSCLC
K-562 leukemia = tested on: K-562 leukemia
U251 CNS = tested on: U251 CNS
SK-OV-3 ovarian = tested on: SK-OV-3 ovarian
SF-539 CNS = tested on: SF-539 CNS
NCI-H23 lung = tested on: NCI-H23 lung
LOX IMVI melanoma = tested on: LOX IMVI melanoma
TK-10 renal = tested on: TK-10 renal
786-0 renal = tested on: 786-0 renal
M14 melanoma = tested on: M14 melanoma
RXF-631 renal = tested on: RXF-631 renal
SR leukemia = tested on: SR leukemia
ACHN renal = tested on: ACHN renal
LXFL 529 NSCLC = tested on: LXFL 529 NSCLC

## CCCCC1=C(Br)C(=C(Br)Br)OC1=O
DMS 114 small cell lung
  TGI: 5.71 µM
KM12 colon
  TGI: 9.28 µM
OVCAR-8 ovarian
  TGI: 11.4 µM
IGROV1 ovarian
  TGI: 5.92 µM
UACC-257 melanoma
  TGI: 6.16 µM
SNB-78 CNS
  TGI: 37 µM
SN12C renal
  TGI: 7.92 µM
MCF7 breast
  TGI: 15.4 µM
SN12K1 renal
  TGI: 3.96 µM
OVCAR-5 ovarian
  TGI: 30.3 µM
SK-MEL-28 melanoma
  TGI: 7.78 µM
DLD-1 colon
  TGI: 4.37 µM
RPMI-8226 leukemia
  TGI: 4.67 µM
CCRF-CEM leukemia
  TGI: 7.81 µM
COLO 205 colon
  TGI: 8.11 µM
A549 NSCLC
  TGI: 33.8 µM
EKVX NSCLC
  TGI: 10.6 µM
NCI-H460 lung
  TGI: 16.8 µM
SF-295 CNS
  TGI: 23.7 µM
MALME-3M melanoma
  TGI: 5.31 µM
OVCAR-3 ovarian
  TGI: 6.05 µM
SW-620 colon
  TGI: 12.4 µM
HL-60(TB) leukemia
  TGI: 5.38 µM
M19-MEL melanoma
  TGI: 8.42 µM
UACC-62 melanoma
  TGI: 6.51 µM
NCI/ADR-RES ovarian
  TGI: 11.9 µM
HCT-116 colon
  TGI: 8.85 µM
HOP-62 NSCLC
  TGI: 19 µM
SK-MEL-2 melanoma
  TGI: 8.49 µM
UO-31 renal
  TGI: 24.2 µM
HCC-2998 colon
  TGI: 18.1 µM
CAKI-1 renal
  TGI: 5.53 µM
RXF 393 renal
  TGI: 5.95 µM
MOLT-4 leukemia
  TGI: 5.66 µM
HCT-15 colon
  TGI: 5.55 µM
KM20L2 colon
  TGI: 24.8 µM
A498 renal
  TGI: 31 µM
HOP-18 NSCLC
  TGI: 10.5 µM
SK-MEL-5 melanoma
  TGI: 13.5 µM
OVCAR-4 ovarian
  TGI: 3.32 µM
P388 leukemia
  TGI: 2.4 µM
SNB-75 CNS
  TGI: 16.5 µM
SNB-19 CNS
  TGI: 20.3 µM
NCI-H226 lung
  TGI: 9.35 µM
XF 498 CNS
  TGI: 19.9 µM
P388/ADR leukemia
  TGI: 5.76 µM
HT29 colon
  TGI: 10.2 µM
DMS 273 small cell lung
  TGI: 8.01 µM
NCI-H522 lung
  TGI: 3.5 µM
SF-268 CNS
  TGI: 7.9 µM
HOP-92 NSCLC
  TGI: 23.4 µM
K-562 leukemia
  TGI: 13 µM
U251 CNS
  TGI: 17.1 µM
SK-OV-3 ovarian
  TGI: 31.4 µM
SF-539 CNS
  TGI: 10.5 µM
NCI-H23 lung
  TGI: 15.8 µM
LOX IMVI melanoma
  TGI: 4.78 µM

## Cc1ccnc(NS(=O)(=O)c2ccc(NC3=CC(=O)C(=O)c4ccccc43)cc2)n1
TK-10 renal
  TGI: > 100 µM
DMS 114 small cell lung
  TGI: > 100 µM
786-0 renal
  TGI: > 100 µM
KM12 colon
  TGI: > 100 µM
OVCAR-8 ovarian
  TGI: > 100 µM
IGROV1 ovarian
  TGI: > 100 µM
UACC-257 melanoma
  TGI: > 100 µM
SNB-78 CNS
  TGI: > 100 µM
SN12C renal
  TGI: > 100 µM
OVCAR-5 ovarian
  TGI: > 100 µM
SK-MEL-28 melanoma
  TGI: > 100 µM
DLD-1 colon
  TGI: > 100 µM
CCRF-CEM leukemia
  TGI: > 100 µM
COLO 205 colon
  TGI: > 100 µM
M14 melanoma
  TGI: > 100 µM
A549 NSCLC
  TGI: > 100 µM
RXF-631 renal
  TGI: > 100 µM
EKVX NSCLC
  TGI: > 100 µM
NCI-H460 lung
  TGI: > 100 µM
SF-295 CNS
  TGI: > 100 µM
MALME-3M melanoma
  TGI: > 100 µM
OVCAR-3 ovarian
  TGI: > 100 µM
SW-620 colon
  TGI: > 100 µM
HL-60(TB) leukemia
  TGI: > 100 µM
M19-MEL melanoma
  TGI: > 100 µM
UACC-62 melanoma
  TGI: > 100 µM
HCT-116 colon
  TGI: > 100 µM
HOP-62 NSCLC
  TGI: > 100 µM
SR leukemia
  TGI: > 100 µM
SK-MEL-2 melanoma
  TGI: > 100 µM
UO-31 renal
  TGI: > 100 µM
HCC-2998 colon
  TGI: > 100 µM
CAKI-1 renal
  TGI: > 100 µM
RXF 393 renal
  TGI: > 100 µM
MOLT-4 leukemia
  TGI: > 100 µM
HCT-15 colon
  TGI: > 100 µM
KM20L2 colon
  TGI: > 100 µM
A498 renal
  TGI: > 100 µM
HOP-18 NSCLC
  TGI: > 100 µM
ACHN renal
  TGI: > 100 µM
SK-MEL-5 melanoma
  TGI: > 100 µM
OVCAR-4 ovarian
  TGI: > 100 µM
SNB-75 CNS
  TGI: > 100 µM
SNB-19 CNS
  TGI: > 100 µM
NCI-H226 lung
  TGI: > 100 µM
XF 498 CNS
  TGI: > 100 µM
HT29 colon
  TGI: > 100 µM
DMS 273 small cell lung
  TGI: > 100 µM
NCI-H522 lung
  TGI: > 100 µM
LXFL 529 NSCLC
  TGI: > 100 µM
SF-268 CNS
  TGI: > 100 µM
K-562 leukemia
  TGI: > 100 µM
U251 CNS
  TGI: > 100 µM
SK-OV-3 ovarian
  TGI: > 100 µM
SF-539 CNS
  TGI: > 100 µM
NCI-H23 lung
  TGI: > 100 µM
LOX IMVI melanoma
  TGI: > 100 µM
